Like-named read-outs stand apart in the source and are kept apart here.
Tests used:
468 kinases [1] = conditions: concentration of 100 nM; cited from earlier work
468 kinases [2] = type: binding; conditions: concentration of 100 nM

Compound | number of wild-type kinases inhibited (percent control <35%) (468 kinases [1]) | number of wild-type kinases inhibited (percent control <35%) (468 kinases [2])
Cc1cnc(Nc2ccc(OCCN3CCCC3)cc2)nc1Nc1cccc(S(=O)(=O)NC(C)(C)C)c1 [Fedratinib] | 34 | 
C1=C/COCc2cc(ccc2OCCN2CCCC2)Nc2nccc(n2)-c2cccc(c2)COC/1 [Pacritinib] |  | 55

— publication PMC12504684 (Communications Chemistry, 2025)
